Results from patent US20080206149A1, “METHOD, DYE AND MEDICAMENT FOR STAINING THE INTERNAL LIMITING MEMBRANE, EPIRETINAL MEMBRANE, THE VITREOUS AND/OR THE CAPSULE OF AN EYE” (LUDWIG-MAXIMILIANS-UNIVERSITAT MUNCHEN, priority 2005, published 2008).

Columns and labels:
lens capsule = test: Staining of the lens capsule in enucleated porcine eyes; details: injected into air-filled anterior chamber, removed after one minute; clear porcine lens as background
Description: Additionally, the staining characteristics of the lens capsule in enucleated porcine eyes with a postmortem time of nine hours were evaluated. The dyes were injected into the air-filled anterior chamber and removed by irrigation after one minute. Then, the cornea was removed and a capsulorhexis was performed with a bent needle. All procedures were taped on video.

vitreous = test: Staining of the vitreous during pars plana vitrectomy in porcine eyes; type: in vivo; details: graded by two examiners
Description: All dyes were dissolved and diluted using balanced salt solution (BSS plus; Alcon Laboratories Inc., Fort Worth, Tex).
Experiments were performed in animals (porcine eyes) and humans after approval of the local ethics committee had been obtained. All experiments were performed in compliance with the Declaration of Helsinki.
Ophthalmic surgery consisted of a standard pars plana vitrectomy. First, the transparent vitreous was removed as completely as possible. Then fluid air exchange was performed in order to avoid an uncontrolled distribution of the dye in the vitreous cavity. The dye was then injected into the air filled globe. After a period of one minute, the dye was washed out by irrigation with BSS. This was followed by an injection of the dye in concentrations from 0.2% to 2%. The staining of the vitreous was graded by two examiners who also performed the surgical procedures.

human lens capsule = test: Capsulorhexis in patients with white cataracts (Example 2); type: in vivo
Text: In previous experimental studies, we have investigated a number of vital dyes in-vivo and in-vitro in order to evaluate their staining characteristics and safety (C. Haritoglou, A. Yu, W. Freyer, S. G. Priglinger, C. Alge, K. Eibl, C. A. May, U. Welge-Luessen, A. Kampik, “An evaluation of novel vital dyes for intraocular surgery”, Invest Ophthalmol Vis Sci 46 (2005), pp. 3315-22; F. Schuettauf, C. Haritoglou, C. A. May, R. Rejdak, A. Mankowska, W. Freyer, K. Eibl, E. Zrenner, A. Kampik, S. Thaler, “Administration of novel dyes for intraocular surgery: an in vivo toxicity animal study”, Invest Ophthalmol Vis Sci 47 (2006), pp. 3573-8; C. Haritoglou, R. Tadayoni, C. A. May, C. A. Gass, W. Freyer, S. G. Priglinger, A. Kampik, “Short-term in vivo evaluation of novel vital dyes for intraocular surgery”, Retina 26 (2006), pp. 673-8). […] Prior to the application in humans, the toxicity of bromphenol blue had been thoroughly investigated in experimental settings including ex-vivo cell culture models and in-vivo animal studies with intraocular exposure times of up to seven days (C. Haritoglou, A. Yu, W. Freyer, S. G. Priglinger, C. Alge, K. Eibl, C. A. May, U. Welge-Luessen, A. Kampik, “An evaluation of novel vital dyes for intraocular surgery”, Invest Ophthalmol Vis Sci 46 (2005), pp. 3315-22; F. Schuettauf, C. Haritoglou, C. A. May, R. Rejdak, A. Mankowska, W. Freyer, K. Eibl, E. Zrenner, A. Kampik, S. Thaler, “Administration of novel dyes for intraocular surgery: an in vivo toxicity animal study”, Invest Ophthalmol Vis Sci 47 (2006), pp. 3573-8; C. Haritoglou, R. Tadayoni, C. A. May, C. A. Gass, W. Freyer, S. G. Priglinger, A. Kampik, “Short-term in vivo evaluation of novel vital dyes for intraocular surgery”, Retina 26 (2006), pp. 673-8). […] The data obtained from these toxicity studies underlined the high biocompatibility of bromphenol blue. Bromphenol blue (C19H10Br4O5S, FW 670) has been used in the past as a vital stain to probe the blood-brain barrier and as a protein stain and as a pH indicator. In the present example, we describe experience using bromphenol blue to stain the human lens capsule in patients with white cataracts. This investigation was approved by the local ethics committee and the Institutional Review Board (IRB). Written informed consent was obtained from all patients prior to surgery.
Cataract formation was due to ocular trauma (n=2), uveitis (n=1) and unknown cause (n=2). Mean age was 59 years. All patients underwent a complete clinical examination before surgery. B-scan ultrasound of the globe was performed to rule out intraocular pathologies such as tumors or retinal detachments. Bromphenol blue powder was dissolved and diluted using BSS plus (balanced salt solution; Alcon Laboratories Inc., Fort Worth, Tex, USA) and sterilized using a 0.22 μm syringe filter. We used dye concentrations of approximately 0.1% (310 mOsm, pH 7.6). Five consecutive patients were included into this preliminary series of patients, three female and two male. Visual acuity was 20/400 or below before surgery and increased to 20/50 (mean) postoperatively. The dye was either injected into the air-filled (n=3) anterior chamber and carefully removed by injection of viscoelastic material (FIG. 7) immediately after injection or injected after having filled the anterior chamber with viscoelastic material (n=2) without prior air injection. In the latter case, the dye was evenly and gently distributed on the lens surface using the cannula and excessive dye was removed after completion of capsulorhexis (approximately one minute after application).

anterior lens capsule = details: previous experimental studies; cited from earlier work
[1] = tested on: anterior segment of the eye; details: animals, dye exposure of seven days, cited from earlier work
[2] = approximately 0.1% dye, white cataract patients

In the case of `O=S1(=O)OC(c2cc(Br)c(O)c(Br)c2)(c2cc(Br)c(O)c(Br)c2)c2ccccc21` [Bromophenol blue, Bromophenole blue], the “staining of the lens capsule in porcine eyes” value (lens capsule) was “stained well”, the “staining effect of the vitreous” value (vitreous; dye concentration 0.2%) was “good” and the “staining effect of the vitreous” value (vitreous; dye concentration 2.0%) was “strong”. For the same molecule, the “contrast between the white lens and the stained lens capsule” value (human lens capsule; all patients) was “excellent contrast”, the “visual acuity before surgery” value (human lens capsule; [2]) was 20/400 and the “visual acuity postoperatively (mean)” value (human lens capsule; [2]) was 20/50. For the same molecule, the “staining of the anterior lens capsule” value (human lens capsule; approximately 0.1%, both injection techniques) was “predictable and uniform staining”, the “complications such as corneal edema, inflammation or decrease of corneal endothelial cells” value (human lens capsule; follow-up up to five months postoperatively) was “no complications noted” and the “penetration of the lens capsule by the dye” value (human lens capsule; human, in vivo) was “did not penetrate the lens capsule”. For the same molecule, the “unwanted staining of other tissues such as the iris or the corneal endothelium” value (human lens capsule; human, in vivo) was “no unwanted staining of other tissues”, the “residual dye on the anterior lens capsule rim or any other ocular tissue” value (human lens capsule; one day postoperatively) was “no residual dye was detected” and the “safety for intraocular application” value (anterior lens capsule) was “safe for intraocular application”. For the same molecule, the “staining of the anterior lens capsule” value (anterior lens capsule) was “strongly stain”, the “clinical examinations: signs of inflammatory responses or toxicity in the anterior segment” value ([1]; also higher dye concentrations) was “did not reveal any signs of inflammatory responses or toxicity” and the “histological abnormalities following enucleation” value [1] was “no histological abnormalities”.
